From the NIST ThermoML archive (doi:10.1021/acs.jced.7b00386)

Conditions: Liquid; for mass density: Siemens ultrasonic flowmeter; for viscosity: Capillary tube (Ostwald / Ubbelohde) method

CCCCCCC(=O)OCC [ethyl heptanoate]
Conditions	mass density [kg/m3]	viscosity [mPa·s]
303.1 K, 6000 kPa	867.7	–
303.19 K, 14980 kPa	877.5	–
303.2 K, 100 kPa	860.8	–
303.2 K, 3020 kPa	864.5	–
303.2 K, 9010 kPa	871.2	–
303.21 K, 11950 kPa	874.5	–
312.72 K, 9120 kPa	–	1.006
312.73 K, 100 kPa	–	0.9036
312.77 K, 6100 kPa	–	0.9702
312.8 K, 3100 kPa	–	0.9452
312.96 K, 100 kPa	851.2	–
313.06 K, 3060 kPa	854.7	–
313.1 K, 12180 kPa	–	1.033
313.13 K, 6090 kPa	858.1	–
313.17 K, 9070 kPa	861.4	–
313.17 K, 15010 kPa	867.9	–
313.17 K, 15170 kPa	–	1.06
313.18 K, 12000 kPa	864.7	–
322.62 K, 100 kPa	–	0.7963
322.71 K, 3120 kPa	–	0.8252
322.76 K, 15110 kPa	–	0.9293
322.78 K, 6130 kPa	–	0.8471
322.85 K, 9090 kPa	–	0.8702
322.91 K, 12080 kPa	–	0.9036
323.09 K, 100 kPa	841.6	–
323.09 K, 15150 kPa	859.2	–
323.1 K, 9100 kPa	852.5	–
323.11 K, 3100 kPa	845.2	–
323.13 K, 12060 kPa	855.8	–
323.14 K, 6110 kPa	848.8	–
333.05 K, 100 kPa	832.1	–
333.14 K, 3010 kPa	835.6	–
333.14 K, 9020 kPa	843.2	–
333.14 K, 12010 kPa	846.8	–
333.18 K, 6080 kPa	839.7	–
333.2 K, 15070 kPa	850.5	–
333.42 K, 15070 kPa	–	0.8106
333.45 K, 100 kPa	–	0.7016
333.5 K, 12100 kPa	–	0.7844
333.57 K, 3070 kPa	–	0.7229
333.6 K, 9160 kPa	–	0.7629
333.63 K, 6130 kPa	–	0.7431
343.02 K, 100 kPa	823	–
343.06 K, 3010 kPa	827.1	–
343.16 K, 100 kPa	–	0.6217
343.19 K, 15000 kPa	842.1	–
343.2 K, 9000 kPa	834.8	–
343.22 K, 9070 kPa	–	0.6801
343.22 K, 12050 kPa	–	0.6996
343.22 K, 12100 kPa	838.5	–
343.23 K, 6050 kPa	831	–
343.27 K, 3070 kPa	–	0.6412
343.27 K, 15120 kPa	–	0.7191
343.38 K, 6080 kPa	–	0.6593
352.71 K, 100 kPa	–	0.5547
352.83 K, 3040 kPa	–	0.5733
352.85 K, 100 kPa	815.1	–
352.86 K, 6100 kPa	–	0.5898
352.9 K, 9030 kPa	–	0.6068
352.95 K, 3090 kPa	819.4	–
352.95 K, 12080 kPa	–	0.6227
353.04 K, 15040 kPa	–	0.6414
353.06 K, 9090 kPa	827.5	–
353.11 K, 6070 kPa	823.2	–
353.14 K, 12070 kPa	831.2	–
353.23 K, 15010 kPa	835.1	–
